Assay results taken from patent US7241785B2, “Five-membered heterocyclic alkanoic acid derivative” (Takeda Pharmaceutical Company Limited, priority 2001, dated 2007).

Assays:
KKA^y mice [1] = test: Hypoglycemic and hypolipidemic (hypotriglyceridemic) actions in mice; format: in vivo; conditions: Mus musculus, po, 96 h, 0.01% in powdery diet, four days
Description: Hypoglycemic and Hypolipidemic (Hypotriglyceridemic) Actions in Mice
Test compounds were mixed in a powdery diet (CE-2, Japan Clea) at the concentration of 0.01%, and freely given to KKA^y mice (11 to 12 weeks old, 5 mice per group), a model of type 2 diabetes mellitus, for four days. During this period, water was given freely. Blood was sampled from orbital venous plexus, and glucose and triglyceride levels in plasma separated from the blood were determined enzymatically using L type Wako Glu2 (Wako Pure Chemical Industries, Ltd.) or L type Wako TG.H (Wako Pure Chemical Industries, Ltd.), respectively.
In the Table, “hypoglycemic action (%)” represents a percent reduction (%) of the blood glucose level in the treatment group when the blood glucose level in the non-treatment group is taken as 100%. In addition, “hypolipidemic action (%)” represents a percent reduction (%) of the blood triglyceride level in the treatment group when the blood triglyceride level in the non-treatment group is taken as 100%.

KKA^y mice [2] = test: Total cholesterol lowering action and plasma anti-arteriosclerosis index-enhancing action in mice; format: in vivo; conditions: Mus musculus, po, 96 h, 0.01% in powdery diet, four days
Description: Total Cholesterol Lowering Action and Plasma Anti-Arteriosclerosis Index-Enhancing Action in Mice
Test compounds were mixed in a powdery diet (CE-2, Japan Clea concentration of 0.01%, and freely given to KKA^y mice (11 to 12 weeks old, 5 mice per group), a model of type 2 diabetes mellitus, for four days. During this period, water was given freely. Blood was sampled from orbital venous plexus, and components in plasma separated from the blood were determined. Total cholesterol levels were determined using L type Wako Cholesterol (Wako Pure Chemical Industries, Ltd.). Precipitation reagent for HDL cholesterol was added to a part of the plasma to precipitate non-HDL lipoprotein, and cholesterol (HDL cholesterol) in the resulting supernatant was determined. The plasma anti-arteriosclerosis index [(HDL cholesterol/total cholesterol)×100] was calculated using these cholesterol levels.
In the Table, “total cholesterol lowering action (%)” represents a percent reduction (%) of the total cholesterol level in the treatment group when the total cholesterol level in the non-treatment group is taken as 100%. In addition, “plasma anti-arteriosclerosis index-enhancing action (%)” represents a percent increase (%) of the plasma anti-arteriosclerosis index in the treatment group when the plasma anti-arteriosclerosis index in the non-treatment group is taken as 100%.

[3] = percent reduction of blood glucose level vs non-treatment group (100%), read-out: Hypoglycemic action (%)
[4] = percent reduction of blood triglyceride level vs non-treatment group (100%), read-out: Hypolipidemic action (%)

melting point | Structure (SMILES) | also measured
106 to 108 °C | Cc1oc(-c2ccccc2)nc1COc1ccc(CN(C)c2nc(-c3ccccc3)c(CCC(=O)O)s2)cc1.Cl | 
170 to 171 °C | Cc1oc(-c2ccccc2)nc1COc1ccc(CSc2nc(CCC(=O)O)n[nH]2)cc1 [Example 18, 3-[5-[4-(5-methyl-2-phenyl-4-oxazolylmethoxy)benzylthio]-1H-1,2,4-triazol-3-yl]propionic acid] | 
180 to 181 °C | Cc1oc(-c2ccccc2)nc1COc1ccc(Sc2nc(CC(=O)O)cs2)cc1 [Example 19, [2-[4-(5-methyl-2-phenyl-4-oxazolylmethoxy)phenylthio]-4-thiazolyl]acetic acid] | 
125 to 126 °C | Cc1oc(-c2ccccc2)nc1COc1ccc(COc2nn(Cc3ccccc3)cc2CCC(=O)O)cc1 [Example 20, 3-[1-benzyl-3-[-4-(5-methyl-2-phenyl-4-oxazolylmethoxy)benzyloxy]-1H-pyrazol-4-yl]propionic acid] | 
148 to 149 °C | Cc1oc(-c2ccccc2)nc1CCOc1ccc(COc2nn(C)cc2CC(=O)O)cc1 [Example 22, [1-methyl-3-[4-[2-(5-methyl-2-phenyl-4-oxazolyl)ethoxy]benzyloxy]-1H-pyrazol-4-yl]acetic acid] | 
133 to 134 °C | Cc1oc(-c2ccccc2)nc1COc1ccc(COc2nn(C)cc2CC(=O)O)cc1 [Example 24, [1-methyl-3-[4-(5-methyl-2-phenyl-4-oxazolylmethoxy)benzyloxy]-1H-pyrazol-4-yl]acetic acid] | inhibition in vivo at 0.01 % in diet (KKA^y mice [1]; [3]): 50%; inhibition in vivo at 0.01 % in diet (KKA^y mice [1]; [4]): 22%
126 to 127 °C | Cc1oc(-c2ccccc2)nc1COc1cc(COc2nn(C)cc2CC(=O)O)ccn1 [Example 28, [1-methyl-3-[2-(5-methyl-2-phenyl-4-oxazolylmethoxy)-4-pyridylmethoxy]-1H-pyrazol-4-yl]acetic acid] | 
149 to 150 °C | Cc1oc(-c2ccccc2)nc1COc1cc(COc2nn(C)cc2CC(=O)O)on1 [Example 30, [1-methyl-3-[3-(5-methyl-2-phenyl-4-oxazolylmethoxy)-5-isoxazolylmethoxy]-1H-pyrazol-4-yl]acetic acid] | 
124 to 125 °C | Cn1cc(CC(=O)O)c(OCc2cc(OCc3ccc4ccccc4n3)no2)n1 [Example 32, [1-methyl-3-[3-(2-quinolylmethoxy)-5-isoxazolylmethoxy]-1H-pyrazol-4-yl]acetic acid] | 
156 to 157 °C | Cn1cc(CC(=O)O)c(OCc2ccc(OCc3csc(-c4ccccc4)n3)nc2)n1 [Example 34, [1-methyl-3-[6-(2-phenyl-4-thiazolylmethoxy)-3-pyridylmethoxy]-1H-pyrazol-4-yl]acetic acid] | 
140 to 141 °C | Cc1sc(-c2ccccc2)nc1COc1ccc(COc2nn(C)cc2CC(=O)O)cn1 [Example 36, [1-methyl-3-[6-(5-methyl-2-phenyl-4-thiazolylmethoxy)-3-pyridylmethoxy]-1H-pyrazol-4-yl]acetic acid] | 
155 to 156 °C | Cc1oc(-c2ccco2)nc1COc1ccc(COc2nn(C)cc2CC(=O)O)cn1 [Example 38, [3-[6-[2-(2-furyl)-5-methyl-4-oxazolylmethoxy]-3-pyridylmethoxy]-1-methyl-1H-pyrazol-4-yl]acetic acid] | inhibition in vivo at 0.01 % in diet (KKA^y mice [1]; [3]): 47%; inhibition in vivo at 0.01 % in diet (KKA^y mice [1]; [4]): 36%; change in vivo at 0.01 % in diet (KKA^y mice [2]; percent increase of index [(HDL cholesterol/total cholesterol)×100] vs non-treatment group (100%)): 12%; inhibition in vivo at 0.01 % in diet (KKA^y mice [2]; percent reduction of total cholesterol level vs non-treatment group (100%)): 12%
153 to 154 °C | COc1cc(COc2nn(C)cc2CC(=O)O)ccc1OCc1nc(-c2ccccc2)oc1C [Example 42, [3-[3-methoxy-4-(5-methyl-2-phenyl-4-oxazolylmethoxy)benzyloxy]-1-methyl-1H-pyrazol-4-yl]acetic acid] | 
91 to 92 °C | Cc1oc(-c2ccccc2)nc1COc1ccc(COc2nn(Cc3ccccc3)cc2CC(=O)O)cc1 [Example 44, [1-benzyl-3-[4-(5-methyl-2-phenyl-4-oxazolylmethoxy)benzyloxy]-1H-pyrazol-4-yl]acetic acid] | inhibition in vivo at 0.01 % in diet (KKA^y mice [1]; [3]): 53%; inhibition in vivo at 0.01 % in diet (KKA^y mice [1]; [4]): 68%
99 to 100 °C | COc1cc(COc2nn(Cc3ccccc3)cc2CC(=O)O)ccc1OCc1nc(-c2ccccc2)oc1C [Example 46, [1-benzyl-3-[3-methoxy-4-(5-methyl-2-phenyl-4-oxazolylmethoxy)benzyloxy]-1H-pyrazol-4-yl]acetic acid] | inhibition in vivo at 0.01 % in diet (KKA^y mice [1]; [3]): 54%; inhibition in vivo at 0.01 % in diet (KKA^y mice [1]; [4]): 56%
130 to 131 °C | Cc1oc(-c2ccccc2)nc1COc1ccc(COc2nn(Cc3ccccc3)cc2CCC(=O)O)cn1 [Example 48, 3-[1-benzyl-3-[6-(5-methyl-2-phenyl-4-oxazolylmethoxy)-3-pyridylmethoxy]-1H-pyrazol-4-yl]propionic acid] | 
107 to 108 °C | COC(=O)Cc1cn(-c2ccccc2)nc1OCc1ccc(OCc2nc(-c3ccccc3)oc2C)c(OC)c1 [Example 51, methyl [3-[3-methoxy-4-(5-methyl-2-phenyl-4-oxazolylmethoxy)benzyloxy]-1-phenyl-1H-pyrazol-4-yl]acetate] | 
96 to 97 °C | COC(=O)Cc1cn(-c2ccccc2)nc1OCc1ccc(OCc2nc(-c3ccccc3)oc2C)nc1 [Example 53, methyl [3-[6-(5-methyl-2-phenyl-4-oxazolylmethoxy)-3-pyridylmethoxy]-1-phenyl-1H-pyrazol-4-yl]acetate] | 
161 to 162 °C | COc1cc(COc2nn(-c3ccccc3)cc2CCC(=O)O)ccc1OCc1nc(-c2ccco2)oc1C [Example 56, 3-[3-[4-[2-(2-furyl)-5-methyl-4-oxazolylmethoxy]-3-methoxybenzyloxy]-1-phenyl-1H-pyrazol-4-yl]propionic acid] | 
110 to 111 °C | Cc1oc(-c2ccccc2)nc1COc1ccc(CCc2oc(-c3ccccc3)nc2CCC(=O)O)cc1 [Example 65, 3-[5-[2-[4-(5-methyl-2-phenyl-4-oxazolyl)methoxyphenyl]ethyl]-2-phenyl-4-oxazolyl]propionic acid] | 
154 to 155 °C | Cc1oc(-c2ccco2)nc1COc1ccc(Cc2nc(CCC(=O)O)c(-c3ccccc3)o2)cc1 [Example 67, 3-[2-[4-[2-(2-furyl)-5-methyl-4-oxazolylmethoxy]benzyl]-5-phenyl-4-oxazolyl]propionic acid] | 
74 to 76 °C | Cc1oc(-c2ccco2)nc1COc1ccc(Cc2nc(-c3ccccc3)c(CCC(=O)O)o2)cc1 [Example 69, 3-[2-[4-[2-(2-furyl)-5-methyl-4-oxazolylmethoxy]benzyl]-4-phenyl-5-oxazolyl]propionic acid] | 
179 to 180 °C | COc1cc(COc2nn(-c3ccccc3)cc2CC(=O)O)ccc1OCc1nc(-c2ccco2)oc1C [Example 73, [3-[4-[2-(2-furyl)-5-methyl-4-oxazolylmethoxy]-3-methoxybenzyloxy]-1-phenyl-1H-pyrazol-4-yl]acetic acid] | 
132 to 133 °C | COc1cc(COc2nn(-c3ccccc3)cc2CC(=O)N2CCOCC2)ccc1OCc1nc(-c2ccco2)oc1C [Example 74, 4-[3-[4-[2-(2-furyl)-5-methyl1–4-oxazolylmethoxy]-3-methoxybenzyloxy]-1-phenyl-1H-pyrazol-4-yl]acetylmorpholine] | 
145 to 146 °C (dec.) | COc1cc(COc2cc(CC(=O)O)n(-c3ccccc3)n2)ccc1OCc1nc(-c2ccco2)oc1C [Example 77, [3-[4-[2-(2-furyl)-5-methyl-4-oxazolylmethoxy]-3-methoxybenzyloxy]-1-phenyl-1H-pyrazol-5-yl]acetic acid] | 
157 to 158 °C | COc1cc(COc2cc(CCC(=O)O)n(-c3ccccc3)n2)ccc1OCc1nc(-c2ccccc2)oc1C [Example 79, 3-[3-[3-methoxy-4-(5-methyl-2-phenyl-4-oxazolylmethoxy)benzyloxy]-1-phenyl-1H-pyrazol-5-yl]propionic acid] | 
154 to 155 °C | Cc1oc(-c2ccccc2)nc1COc1ccc(COc2cc(CCC(=O)O)n(-c3ccccc3)n2)cc1 [Example 81, 3-[3-[4-(5-methyl-2-phenyl-4-oxazolylmethoxy)benzyloxy]-1-phenyl-1H-pyrazol-5-yl]propionic acid] | 
137 to 138 °C | Cc1oc(-c2ccccc2)nc1COc1cccc(COc2cc(CCC(=O)O)n(-c3ccccc3)n2)c1 [Example 83, 3-[3-[3-(5-methyl-2-phenyl-4-oxazolylmethoxy)benzyloxy]-1-phenyl-1H-pyrazol-5-yl]propionic acid] | 
